One assay addresses GDP-loaded KRAS G12D (Homo sapiens (Human), UniProt P01116, G12D). Briefly: KRAS G12D (GDP) biochemical assay (TR-FRET probe displacement). The format is binding. Particulars: 2 hours. On the procedure: Example A. KRAS G12D (GDP) Biochemical Assay
Compounds were tested for binding to GDP-loaded KRAS G12D in a 384-well assay format using a TR-FRET probe displacement assay in buffer consisting of 50 mM Hepes (pH 7.4), 150 mM NaCl, 5 mM MgCl2 and 0.005% Tween-20. […] Compounds were serially diluted (1:3) in DMSO. The LabCyte ECHO Acoustic dispenser system was used to pre-spot the assay plates (384-well Non-Binding Surface plates, Corning, Catalog #3824) with 50 nL of compound. The compounds were pre-incubated with 5 μL of 2× final enzyme concentration for 30 minutes before adding 5 μL of 2× final concentration of Eu-streptavidin and TR-FRET probe (10 μL final reaction volume). The plates were incubated at room temperature for 2 hours before measuring TR-FRET ratio on the Envision plate reader. IC50 values were defined as the compound concentration that causes a 50% decrease in TR-FRET ratio and were calculated using a sigmoidal dose-response model to generate curve fits.
On the technique in general: TR-FRET usually uses a lanthanide donor and a delayed reading to cut background.

Another assay deals with GP2D (KRAS G12D) cells. Briefly: 2D cell viability assay (CellTiter-Glo). The format is cell-based. Particulars: GP2d, 96 h, 4 days. As for the experimental part: Example B. 2D Cell Viability Assay
Compounds were tested in a 384-well format for their ability to inhibit the viability of GP2D (KRAS G12D) cells in 2D assays. Compounds were serially diluted (1:3) in DMSO. The LabCyte ECHO Acoustic dispenser system was used to pre-spot assay plates with 200 nL of test molecule per well. 1000 cells/well (40 μL volume per well) in RPMI medium with 10% FBS, and Penicillin-Streptomycin-Glutamine were plated in pre-spotted 384-well plates (Greiner, Catalog #781076) on the BioTEK EL406 liquid dispenser with a 5 μL dispensing cassette (BioTek 7170011). The plates were incubated at 37° C., 5% CO2 for 4 days before addition of CellTiter-Glo (CTG) reagent and measurement of luminescence signal. EC50 values were defined as the compound concentration that causes a 50% decrease in luminescence signal and were calculated using a sigmoidal dose-response model to generate curve fits.
For orientation: Cellular ATP, detected with luciferase, serves as a proxy for viable cell number.

GDP-loaded KRAS G12D, sequence (P01116-2 other isoform, or with tags, fused parts or gaps G12D): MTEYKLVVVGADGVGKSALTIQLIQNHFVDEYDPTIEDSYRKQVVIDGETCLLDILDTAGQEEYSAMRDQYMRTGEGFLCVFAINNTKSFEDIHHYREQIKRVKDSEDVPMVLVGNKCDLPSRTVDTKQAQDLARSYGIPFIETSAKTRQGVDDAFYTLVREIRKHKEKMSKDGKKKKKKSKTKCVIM

A word on the IC50: it is the midpoint of a concentration-inhibition curve. A high value points to lower potency. The term EC50 denotes the concentration at which the effect is half-maximal. Lower therefore signals an effect from little substance. In the case of `Oc1cc(-c2nc3c4c(nc(OC[C@@]56CCCN5C[C@H](F)C6)nc4c2F)N2CC4CCC(N4)[C@H]2CO3)c2ccccc2c1` (stereo in doubt) [Example 18, 4-((5aS,6S,9R)-1-fluoro-12-(((2R,7aS)-2-fluorotetrahydro-1H-pyrrolizin-7a(5H)-yl)methoxy)-5a,6,7,8,9,10-hexahydro-5H-4-oxa-3,10a,11,13,14-pentaaza-6,9-methanonaphtho[1,8-ab]heptalen-2-yl)naphthalen-2-ol], the half-maximal inhibitory concentration (IC50) on GDP-loaded KRAS G12D is over 1 µM. Besides, the EC50 with GP2D (KRAS G12D) cells was over 10 µM.
The like results for `Oc1cc(-c2nc3c4c(nc(OC[C@@]56CCCN5C[C@H](F)C6)nc4c2F)N2CC4CCC(N4)[C@@H]2CO3)c2ccccc2c1` (stereo in doubt) [Example 21, 4-((5aR,6S,9R)-1-fluoro-12-(((2R,7aS)-2-fluorotetrahydro-1H-pyrrolizin-7a(5H)-yl)methoxy)-5a,6,7,8,9,10-hexahydro-5H-4-oxa-3,10a,11,13,14-pentaaza-6,9-methanonaphtho[1,8-ab]heptalen-2-yl)naphthalen-2-ol] were, in that order, 2.1 µM and 3.1 µM.
The compound `C=C(Cl)c1c(C)ccc2cc(O)cc(-c3nc4c5c(nc(OC[C@@]67CCCN6C[C@H](F)C7)nc5c3F)N3CC5CCC(N5)[C@H]3CO4)c12` (stereo in doubt) [Example 74, 5-(1-chlorovinyl)-4-((5aS,6R,9S)-1-fluoro-12-(((2R,7aS)-2-fluorotetrahydro-1H-pyrrolizin-7a(5H)-yl)methoxy)-5a,6,7,8,9,10-hexahydro-5H-4-oxa-3,10a,11,13,14-pentaaza-6,9-methanonaphtho[1,8-ab]heptalen-2-yl)-6-methylnaphthalen-2-ol] returned an IC50 on GDP-loaded KRAS G12D of 0.016 µM. Moreover, the response with GP2D (KRAS G12D) cells was half-maximal at 0.31 µM (EC50).
In turn, `C#Cc1c(F)ccc2cccc(-c3nc4c5c(nc(OC[C@@]67CCCN6C[C@@H](OC(C(F)(F)F)(C(F)(F)F)C(F)(F)F)C7)nc5c3F)N3C[C@H]5CC[C@H](N5)[C@H]3CC4)c12` (stereo in doubt) [Example 135, (5aR,6S,9R)-2-(8-ethynyl-7-fluoronaphthalen-1-yl)-1-fluoro-12-((cis-2-((1,1,1,3,3,3-hexafluoro-2-(trifluoromethyl)propan-2-yl)oxy)tetrahydro-1H-pyrrolizin-7a(5H)-yl)methoxy)-4,5,5a,6,7,8,9,10-octahydro-3,10a,11,13,14-pentaaza-6,9-methanonaphtho[1,8-ab]heptalene] displayed a half-maximal inhibitory concentration (IC50) at GDP-loaded KRAS G12D of 0.0881 µM. The same compound registered an EC50 in the assay with GP2D (KRAS G12D) cells of 0.1 µM.
`C#Cc1c(F)ccc2cccc(-c3nc4c5c(nc(OC[C@@]67CCCN6C[C@@H](OC(F)(F)F)C7)nc5c3F)N3C[C@H]5CC[C@H](N5)[C@H]3CC4)c12` (stereo in doubt) [Example 140, (5aR,6S,9R)-2-(8-ethynyl-7-fluoronaphthalen-1-yl)-1-fluoro-12-((cis-2-(trifluoromethoxy)tetrahydro-1H-pyrrolizin-7a(5H)-yl)methoxy)-4,5,5a,6,7,8,9,10-octahydro-3,10a,11,13,14-pentaaza-6,9-methanonaphtho[1,8-ab]heptalene] had an EC50 with GP2D (KRAS G12D) cells of 0.0759 µM.
`C#Cc1c(F)ccc2cccc(-c3nc4c5c(nc(OC[C@]67CCCN6C[C@@H](OC(F)(F)F)C7)nc5c3F)N3C[C@H]5CC[C@H](N5)[C@H]3CC4)c12` (stereo in doubt) [Example 142, (5aR,6S,9R)-2-(8-ethynyl-7-fluoronaphthalen-1-yl)-1-fluoro-12-((trans-2-(trifluoromethoxy)tetrahydro-1H-pyrrolizin-7a(5H)-yl)methoxy)-4,5,5a,6,7,8,9,10-octahydro-3,10a,11,13,14-pentaaza-6,9-methanonaphtho[1,8-ab]heptalene]: on GDP-loaded KRAS G12D, the IC50 came out at 0.0036 µM. Further, in the assay on GP2D (KRAS G12D) cells, the EC50 was 0.0948 µM.
The compound `Oc1cc(-c2nc3c4c(nc(OC[C@@]56CCCN5C[C@H](F)C6)nc4c2F)N2C[C@H]4CC[C@H](N4)[C@H]2CO3)c2c(F)cccc2c1` [Example 5, 5-fluoro-4-((5aS,6S,9R)-1-fluoro-12-(((2R,7aS)-2-fluorotetrahydro-1H-pyrrolizin-7a(5H)-yl)methoxy)-5a,6,7,8,9,10-hexahydro-5H-4-oxa-3,10a,11,13,14-pentaaza-6,9-methanonaphtho[1,8-ab]heptalen-2-yl)naphthalen-2-ol] displayed an IC50 at GDP-loaded KRAS G12D of 0.003 µM. The compound also registered a concentration for a half-maximal effect (EC50) in the assay with GP2D (KRAS G12D) cells of 0.25 µM.
The compound `Oc1cc(-c2nc3c4c(nc(OC[C@@]56CCCN5C[C@H](F)C6)nc4c2F)N2C[C@H]4CC[C@H](N4)[C@H]2CO3)c2c(F)c(Cl)ccc2c1` [Example 6, 6-chloro-5-fluoro-4-((5aS,6S,9R)-1-fluoro-12-(((2R,7aS)-2-fluorotetrahydro-1H-pyrrolizin-7a(5H)-yl)methoxy)-5a,6,7,8,9,10-hexahydro-5H-4-oxa-3,10a,11,13,14-pentaaza-6,9-methanonaphtho[1,8-ab]heptalen-2-yl)naphthalen-2-ol] showed a concentration for half-maximal inhibition (IC50) at GDP-loaded KRAS G12D of 0.002 µM. In the assay on GP2D (KRAS G12D) cells, this compound had an EC50 of 0.07 µM.
For `Oc1cc(-c2nc3c4c(nc(OC[C@@]56CCCN5C[C@H](F)C6)nc4c2F)N2C[C@H]4CC[C@H](N4)[C@H]2CO3)c2c(OC(F)(F)F)c(F)ccc2c1` [Example 7, 6-fluoro-4-((5aS,6S,9R)-1-fluoro-12-(((2R,7aS)-2-fluorotetrahydro-1H-pyrrolizin-7a(5H)-yl)methoxy)-5a,6,7,8,9,10-hexahydro-5H-4-oxa-3,10a,11,13,14-pentaaza-6,9-methanonaphtho[1,8-ab]heptalen-2-yl)-5-(trifluoromethoxy)naphthalen-2-ol], at GDP-loaded KRAS G12D, the half-maximal inhibitory concentration (IC50) came to 0.0006 µM. The same compound returned an EC50 in the assay on GP2D (KRAS G12D) cells of 0.016 µM.
Turning to `C#Cc1c(F)ccc2cc(O)cc(-c3nc4c5c(nc(OC[Si](C)(C)CN6CCOCC6)nc5c3F)N3C[C@H]5CC[C@H](N5)[C@H]3CO4)c12` [Example 29, 4-((5aS,6S,9R)-12-((dimethyl(morpholinomethyl)silyl)methoxy)-1-fluoro-5a,6,7,8,9,10-hexahydro-5H-4-oxa-3,10a,11,13,14-pentaaza-6,9-methanonaphtho[1,8-ab]heptalen-2-yl)-5-ethynyl-6-fluoronaphthalen-2-ol], in the assay on GP2D (KRAS G12D) cells, the half-maximal effective concentration (EC50) is over 1 µM.
The same measure, in the same setting: to `Fc1ccc2cccc(-c3nc4c5c(nc(OC[C@@]67CCCN6C[C@H](F)C7)nc5c3F)N3C[C@H]5CC[C@H](N5)[C@H]3CC4)c2c1OC(F)(F)F` [Example 65, (5aR,6S,9R)-1-fluoro-2-(7-fluoro-8-(trifluoromethoxy)naphthalen-1-yl)-12-(((2R,7aS)-2-fluorotetrahydro-1H-pyrrolizin-7a(5H)-yl)methoxy)-4,5,5a,6,7,8,9,10-octahydro-3,10a,11,13,14-pentaaza-6,9-methanonaphtho[1,8-ab]heptalene] belongs 0.45 µM.
On the same count and under the same terms, to `C#Cc1c(F)ccc2cc(O)cc(-c3nc4c5c(nc(OC[C@@]67CCCN6C[C@H](F)C7)nc5c3F)N3C[C@H]5CC[C@H](N5)[C@@H]3CC4)c12` [Example 133, 5-ethynyl-6-fluoro-4-((5aS,6S,9R)-1-fluoro-12-(((2R,7aS)-2-fluorotetrahydro-1H-pyrrolizin-7a(5H)-yl)methoxy)-4,5,5a,6,7,8,9,10-octahydro-3,10a,11,13,14-pentaaza-6,9-methanonaphtho[1,8-ab]heptalen-2-yl)naphthalen-2-ol] belongs 0.0011 µM.
